Reference: ChEMBL document CHEMBL1135703, “Synthesis and biological activity of a novel class of small molecular weight peptidomimetic competitive inhibitors of protein tyrosine phosphatase 1B” (2002)

What follows are compounds tested against T1, Tyrosine-protein phosphatase non-receptor type 1 (Rattus norvegicus) (UniProt P20417) (assay: Percent inhibition of Protein-tyrosine phosphatase 1 (PTP) assayed at 100 uM). Details: not given.
T1 sequence (whole entry): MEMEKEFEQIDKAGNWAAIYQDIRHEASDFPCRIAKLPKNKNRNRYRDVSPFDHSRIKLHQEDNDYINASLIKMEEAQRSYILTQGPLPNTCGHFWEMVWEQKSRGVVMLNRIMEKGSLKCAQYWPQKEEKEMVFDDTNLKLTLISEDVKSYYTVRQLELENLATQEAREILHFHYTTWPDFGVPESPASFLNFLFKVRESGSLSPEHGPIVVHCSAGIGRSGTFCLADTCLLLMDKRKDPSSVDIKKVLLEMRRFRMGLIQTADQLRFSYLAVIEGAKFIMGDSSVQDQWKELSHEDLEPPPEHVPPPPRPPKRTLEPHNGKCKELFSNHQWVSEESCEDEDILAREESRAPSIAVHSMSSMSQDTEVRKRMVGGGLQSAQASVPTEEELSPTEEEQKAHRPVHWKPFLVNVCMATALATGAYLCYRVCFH
In the case of `CCCCCNC(=O)C(Cc1ccc(OC(C(=O)O)C(=O)O)cc1)NC(=O)[C@H](CCC(=O)O)NC(=O)CCC(=O)O` (stereo partly drawn), the inhibition is reported as 96%.
Work on `CCCCCNC(=O)C(Cc1ccc(OS(=O)(=O)C(F)(F)F)cc1)NC(=O)CCC(=O)O` (stereo not drawn) yielded an inhibition of 0%.
Work on `CCCCCNC(=O)[C@H](Cc1ccc(OC(C(=O)O)C(=O)O)cc1)NC(=O)[C@@H](Cc1ccc(C(=O)c2ccccc2)cc1)NC(=O)CCC(=O)O` yielded an inhibition of 54%.
Work on `CCCCCNC(=O)C(Cc1ccc(OC(C(=O)O)C(=O)O)cc1)NC(=O)CCC(N)=O` (stereo not drawn) yielded an inhibition of 51%.
`O=C(O)CCC(=O)NC(Cc1ccc(OC(C(=O)O)C(=O)O)cc1)C(=O)NCCCc1ccccc1` (stereo not drawn) showed an inhibition of 72%.
`CC(C)CC(CO)NC(=O)C(Cc1ccc(OC(C(=O)O)C(=O)O)cc1)NC(=O)CCC(=O)O` (stereo not drawn) showed an inhibition of 57%.
For `CCCCCNC(=O)C(Cc1ccc(OC(C(=O)O)C(=O)O)cc1)NC(=O)[C@H](Cc1ccc(OC)cc1)NC(=O)CCC(=O)O` (stereo partly drawn), the inhibition was 98%.
In the case of `CCCCCNC(=O)C(Cc1ccc(OC(C(=O)O)C(=O)O)cc1)NC(=O)[C@H]1C[C@@H]1C(=O)O` (stereo partly drawn), the inhibition is reported as 57%.
`O=C(O)CCC(=O)NC(Cc1ccc(OC(C(=O)O)C(=O)O)cc1)C(=O)NCCCN1CCOCC1` (stereo not drawn) showed an inhibition of 35%.
Compound `CCCCCNC(=O)C(Cc1ccc(OC(C(=O)O)C(=O)O)cc1)NC(=O)[C@H](Cc1ccc(OCc2ccccc2)cc1)NC(=O)CCC(=O)O` (stereo partly drawn) has an inhibition of 98%.
Work on `O=C(O)CCC(=O)NC(Cc1ccc(OC(C(=O)O)C(=O)O)cc1)C(=O)NCCc1ccc(O)cc1` (stereo not drawn) yielded an inhibition of 43%.
`CCCCCNC(=O)C(Cc1ccc(O/C(=C/C(=O)O)C(=O)O)cc1)NC(=O)CCC(=O)O` (stereo not drawn) showed an inhibition of 50%.
`CCCCCNC(=O)C(Cc1ccc(OC(C(=O)O)C(=O)O)cc1)NC(=O)[C@H](CCC(=O)O)NC(=O)OC(C)(C)C` (stereo partly drawn) showed an inhibition of 83%.
`CCCCCNC(=O)C(Cc1ccc(OC(C(=O)O)C(=O)O)cc1)NC(=O)C1C2CCC(C2)[C@@H]1C(=O)O` (stereo partly drawn) gave an inhibition of 37%.
For `CCCCCNC(=O)C(Cc1ccc(OC(C(=O)O)C(=O)O)cc1)NC(=O)CCC(=O)OCc1ccccc1` (stereo not drawn), the inhibition was 39%.
`CCCCCNC(=O)C(Cc1ccc(OC(=O)CC(=O)O)cc1)NC(=O)CCC(=O)O` (stereo not drawn) showed an inhibition of 2%.
Compound `CCCCCNC(=O)C(Cc1ccc(OC(C(=O)O)C(=O)O)cc1)NC(=O)[C@H](CC(=O)O)NC(=O)CCCCC` (stereo partly drawn) has an inhibition of 91%.
With `CCCCCNC(=O)C(Cc1ccc(OS(C)(=O)=O)cc1)NC(=O)CCC(=O)O` (stereo not drawn) the inhibition was 0%.
For `CCCCCNC(=O)C(Cc1ccc(OC(C(=O)O)C(=O)O)cc1)NC(=O)c1ccccc1C(=O)O` (stereo not drawn), the inhibition was 63%.
`O=C(O)CCC(=O)NC(Cc1ccc(OC(C(=O)O)C(=O)O)cc1)C(=O)NCCN1CCCCC1` (stereo not drawn) showed an inhibition of 23%.
`O=C(O)CCC(=O)NC(Cc1ccc(OC(C(=O)O)C(=O)O)cc1)C(=O)NCCCn1ccnc1` (stereo not drawn) showed an inhibition of 26%.
`CCCCCNC(=O)C(Cc1ccc(OC(CC(=O)O)C(=O)O)cc1)NC(=O)CCC(=O)O` (stereo not drawn) gave an inhibition of 34%.
`O=C(O)CCC(=O)NC(Cc1ccc(OC(C(=O)O)C(=O)O)cc1)C(=O)NCCC(c1ccccc1)c1ccccc1` (stereo not drawn) showed an inhibition of 45%.
`CCCCCNC(=O)C(Cc1ccc(OC(C(=O)O)C(=O)O)cc1)NC(=O)CC(=O)O` (stereo not drawn) gave an inhibition of 74%.

The compounds below were run against T2, Tyrosine-protein phosphatase non-receptor type 11 (Mus musculus) (UniProt P35235) (assay: Percent inhibition of Tyrosine phosphatase SHP2 SH2 domain containing PTP involved in insulin uM). Details: concentration not given here.
T2 sequence (whole entry): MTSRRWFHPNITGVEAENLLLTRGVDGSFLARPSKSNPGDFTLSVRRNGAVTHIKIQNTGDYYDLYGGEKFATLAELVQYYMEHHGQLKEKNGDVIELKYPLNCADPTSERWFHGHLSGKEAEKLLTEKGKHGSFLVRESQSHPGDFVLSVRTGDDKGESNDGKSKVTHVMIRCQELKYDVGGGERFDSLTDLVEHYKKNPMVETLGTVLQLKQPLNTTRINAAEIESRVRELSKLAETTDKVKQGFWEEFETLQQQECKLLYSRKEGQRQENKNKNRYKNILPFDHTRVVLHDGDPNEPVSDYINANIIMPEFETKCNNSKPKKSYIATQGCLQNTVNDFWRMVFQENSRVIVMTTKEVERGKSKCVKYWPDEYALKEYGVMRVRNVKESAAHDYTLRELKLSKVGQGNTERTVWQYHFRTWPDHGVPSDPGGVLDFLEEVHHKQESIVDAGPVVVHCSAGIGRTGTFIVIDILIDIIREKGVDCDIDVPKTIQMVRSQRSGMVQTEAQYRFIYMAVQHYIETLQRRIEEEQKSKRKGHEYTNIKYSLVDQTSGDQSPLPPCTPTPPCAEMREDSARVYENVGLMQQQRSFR
Set-up: concentration or dose not given beside the values
Work on `CCCCCNC(=O)C(Cc1ccc(OC(C(=O)O)C(=O)O)cc1)NC(=O)[C@H](CCC(=O)O)NC(=O)CCC(=O)O` (stereo partly drawn) yielded an inhibition of 28%.
With `CCCCCNC(=O)[C@H](Cc1ccc(OC(C(=O)O)C(=O)O)cc1)NC(=O)[C@@H](Cc1ccc(C(=O)c2ccccc2)cc1)NC(=O)CCC(=O)O` the inhibition was 11%.
Compound `O=C(O)CCC(=O)NC(Cc1ccc(OC(C(=O)O)C(=O)O)cc1)C(=O)NCCCc1ccccc1` (stereo not drawn) has an inhibition of 12%.
For `CC(C)CC(CO)NC(=O)C(Cc1ccc(OC(C(=O)O)C(=O)O)cc1)NC(=O)CCC(=O)O` (stereo not drawn), the inhibition was 10%.
`CCCCCNC(=O)C(Cc1ccc(OC(C(=O)O)C(=O)O)cc1)NC(=O)[C@H](Cc1ccc(OC)cc1)NC(=O)CCC(=O)O` (stereo partly drawn) was tested, and the inhibition was 33%.
`CCCCCNC(=O)C(Cc1ccc(OC(C(=O)O)C(=O)O)cc1)NC(=O)[C@H]1C[C@@H]1C(=O)O` (stereo partly drawn) showed an inhibition of 10%.
`O=C(O)CCC(=O)NC(Cc1ccc(OC(C(=O)O)C(=O)O)cc1)C(=O)NCCCN1CCOCC1` (stereo not drawn) was tested, and the inhibition was 2%.
For `CCCCCNC(=O)C(Cc1ccc(OC(C(=O)O)C(=O)O)cc1)NC(=O)[C@H](Cc1ccc(OCc2ccccc2)cc1)NC(=O)CCC(=O)O` (stereo partly drawn), the inhibition was 33%.
For `CCCCCNC(=O)C(Cc1ccc(O/C(=C/C(=O)O)C(=O)O)cc1)NC(=O)CCC(=O)O` (stereo not drawn), the inhibition was 5%.
Compound `CCCCCNC(=O)C(Cc1ccc(OC(C(=O)O)C(=O)O)cc1)NC(=O)[C@H](CCC(=O)O)NC(=O)OC(C)(C)C` (stereo partly drawn) has an inhibition of 14%.
`CCCCCNC(=O)C(Cc1ccc(OC(C(=O)O)C(=O)O)cc1)NC(=O)C1C2CCC(C2)[C@@H]1C(=O)O` (stereo partly drawn) gave an inhibition of 5%.
In the case of `CCCCCNC(=O)C(Cc1ccc(OC(=O)CC(=O)O)cc1)NC(=O)CCC(=O)O` (stereo not drawn), the inhibition is reported as 0%.
In the case of `CCCCCNC(=O)C(Cc1ccc(OC(C(=O)O)C(=O)O)cc1)NC(=O)[C@H](CC(=O)O)NC(=O)CCCCC` (stereo partly drawn), the inhibition is reported as 37%.
In the case of `CCCCCNC(=O)C(Cc1ccc(OC(C(=O)O)C(=O)O)cc1)NC(=O)c1ccccc1C(=O)O` (stereo not drawn), the inhibition is reported as 19%.
With `O=C(O)CCC(=O)NC(Cc1ccc(OC(C(=O)O)C(=O)O)cc1)C(=O)NCCN1CCCCC1` (stereo not drawn) the inhibition was 1%.
Work on `O=C(O)CCC(=O)NC(Cc1ccc(OC(C(=O)O)C(=O)O)cc1)C(=O)NCCCn1ccnc1` (stereo not drawn) yielded an inhibition of 1%.
`CCCCCNC(=O)C(Cc1ccc(OC(CC(=O)O)C(=O)O)cc1)NC(=O)CCC(=O)O` (stereo not drawn) was tested, and the inhibition was 4%.
In the case of `O=C(O)CCC(=O)NC(Cc1ccc(OC(C(=O)O)C(=O)O)cc1)C(=O)NCCC(c1ccccc1)c1ccccc1` (stereo not drawn), the inhibition is reported as 9%.
Work on `CCCCCNC(=O)C(Cc1ccc(OC(C(=O)O)C(=O)O)cc1)NC(=O)CC(=O)O` (stereo not drawn) yielded an inhibition of 13%.

The compounds below were run against Receptor-type tyrosine-protein phosphatase F (Homo sapiens) (UniProt P10586) (assay: Percent inhibition of Protein-tyrosine phosphatase Lar assayed at 100 uM). Details: not given.
Sequence of Receptor-type tyrosine-protein phosphatase F (Homo sapiens) (P10586 whole entry): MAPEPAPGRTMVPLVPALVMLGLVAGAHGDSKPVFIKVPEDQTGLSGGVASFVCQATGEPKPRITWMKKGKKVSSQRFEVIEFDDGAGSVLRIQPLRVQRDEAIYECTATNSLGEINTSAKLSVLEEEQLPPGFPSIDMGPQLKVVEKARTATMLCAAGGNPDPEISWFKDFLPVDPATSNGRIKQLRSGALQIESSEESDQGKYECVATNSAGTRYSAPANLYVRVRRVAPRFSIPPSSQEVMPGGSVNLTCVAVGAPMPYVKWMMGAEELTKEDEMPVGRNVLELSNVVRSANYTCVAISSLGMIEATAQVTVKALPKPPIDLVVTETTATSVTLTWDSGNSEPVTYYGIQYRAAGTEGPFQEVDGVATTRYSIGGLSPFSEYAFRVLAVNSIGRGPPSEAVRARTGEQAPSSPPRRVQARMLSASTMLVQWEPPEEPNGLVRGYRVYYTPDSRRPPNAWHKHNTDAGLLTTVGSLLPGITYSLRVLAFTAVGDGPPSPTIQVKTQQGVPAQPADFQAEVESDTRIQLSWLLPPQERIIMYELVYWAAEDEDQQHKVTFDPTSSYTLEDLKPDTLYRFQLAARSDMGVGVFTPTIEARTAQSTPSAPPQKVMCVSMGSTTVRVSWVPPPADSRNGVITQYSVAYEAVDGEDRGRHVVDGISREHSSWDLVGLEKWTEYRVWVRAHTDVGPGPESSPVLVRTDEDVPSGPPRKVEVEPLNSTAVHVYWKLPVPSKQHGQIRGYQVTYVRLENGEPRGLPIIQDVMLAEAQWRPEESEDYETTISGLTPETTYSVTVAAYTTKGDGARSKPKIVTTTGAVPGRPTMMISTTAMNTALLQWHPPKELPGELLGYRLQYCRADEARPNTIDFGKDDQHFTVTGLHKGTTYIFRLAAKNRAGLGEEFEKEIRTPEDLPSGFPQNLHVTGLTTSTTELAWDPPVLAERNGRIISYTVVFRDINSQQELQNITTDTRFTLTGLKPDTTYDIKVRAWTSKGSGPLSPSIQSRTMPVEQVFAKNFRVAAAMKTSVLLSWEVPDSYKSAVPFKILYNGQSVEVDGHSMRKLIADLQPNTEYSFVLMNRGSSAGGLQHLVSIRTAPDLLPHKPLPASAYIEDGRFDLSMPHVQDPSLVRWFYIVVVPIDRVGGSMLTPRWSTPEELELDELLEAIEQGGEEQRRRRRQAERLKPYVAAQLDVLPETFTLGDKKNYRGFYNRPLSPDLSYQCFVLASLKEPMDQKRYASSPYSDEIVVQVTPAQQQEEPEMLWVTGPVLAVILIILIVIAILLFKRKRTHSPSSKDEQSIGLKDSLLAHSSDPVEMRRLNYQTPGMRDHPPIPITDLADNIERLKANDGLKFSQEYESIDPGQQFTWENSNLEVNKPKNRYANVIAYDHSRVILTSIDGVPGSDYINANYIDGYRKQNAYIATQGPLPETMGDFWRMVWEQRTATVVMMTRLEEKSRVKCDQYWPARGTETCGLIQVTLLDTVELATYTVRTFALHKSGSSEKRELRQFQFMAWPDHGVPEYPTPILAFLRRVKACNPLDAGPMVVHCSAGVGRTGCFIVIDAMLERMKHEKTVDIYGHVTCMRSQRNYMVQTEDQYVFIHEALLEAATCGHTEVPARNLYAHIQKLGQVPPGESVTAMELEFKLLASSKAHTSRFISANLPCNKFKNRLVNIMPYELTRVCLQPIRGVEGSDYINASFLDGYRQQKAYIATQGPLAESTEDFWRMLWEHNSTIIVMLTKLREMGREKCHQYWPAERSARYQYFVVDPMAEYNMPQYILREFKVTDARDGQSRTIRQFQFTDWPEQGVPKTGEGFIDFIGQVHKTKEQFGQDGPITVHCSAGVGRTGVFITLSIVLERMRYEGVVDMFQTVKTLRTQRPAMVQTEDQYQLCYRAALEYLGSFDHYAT
`CCCCCNC(=O)C(Cc1ccc(OC(C(=O)O)C(=O)O)cc1)NC(=O)[C@H](CCC(=O)O)NC(=O)CCC(=O)O` (stereo partly drawn) gave an inhibition of 10%.
`CCCCCNC(=O)[C@H](Cc1ccc(OC(C(=O)O)C(=O)O)cc1)NC(=O)[C@@H](Cc1ccc(C(=O)c2ccccc2)cc1)NC(=O)CCC(=O)O` was tested, and the inhibition was 6%.
`O=C(O)CCC(=O)NC(Cc1ccc(OC(C(=O)O)C(=O)O)cc1)C(=O)NCCCc1ccccc1` (stereo not drawn) gave an inhibition of 6%.
For `CC(C)CC(CO)NC(=O)C(Cc1ccc(OC(C(=O)O)C(=O)O)cc1)NC(=O)CCC(=O)O` (stereo not drawn), the inhibition was 0%.
Work on `CCCCCNC(=O)C(Cc1ccc(OC(C(=O)O)C(=O)O)cc1)NC(=O)[C@H](Cc1ccc(OC)cc1)NC(=O)CCC(=O)O` (stereo partly drawn) yielded an inhibition of 22%.
Work on `CCCCCNC(=O)C(Cc1ccc(OC(C(=O)O)C(=O)O)cc1)NC(=O)[C@H]1C[C@@H]1C(=O)O` (stereo partly drawn) yielded an inhibition of 6%.
In the case of `O=C(O)CCC(=O)NC(Cc1ccc(OC(C(=O)O)C(=O)O)cc1)C(=O)NCCCN1CCOCC1` (stereo not drawn), the inhibition is reported as 0%.
For `CCCCCNC(=O)C(Cc1ccc(OC(C(=O)O)C(=O)O)cc1)NC(=O)[C@H](Cc1ccc(OCc2ccccc2)cc1)NC(=O)CCC(=O)O` (stereo partly drawn), the inhibition was 28%.
In the case of `CCCCCNC(=O)C(Cc1ccc(OC(C(=O)O)C(=O)O)cc1)NC(=O)[C@H](CCC(=O)O)NC(=O)OC(C)(C)C` (stereo partly drawn), the inhibition is reported as 11%.
Work on `CCCCCNC(=O)C(Cc1ccc(OC(C(=O)O)C(=O)O)cc1)NC(=O)C1C2CCC(C2)[C@@H]1C(=O)O` (stereo partly drawn) yielded an inhibition of 8%.
With `CCCCCNC(=O)C(Cc1ccc(OC(C(=O)O)C(=O)O)cc1)NC(=O)[C@H](CC(=O)O)NC(=O)CCCCC` (stereo partly drawn) the inhibition was 10%.
`CCCCCNC(=O)C(Cc1ccc(OC(C(=O)O)C(=O)O)cc1)NC(=O)c1ccccc1C(=O)O` (stereo not drawn) was tested, and the inhibition was 10%.
`O=C(O)CCC(=O)NC(Cc1ccc(OC(C(=O)O)C(=O)O)cc1)C(=O)NCCCn1ccnc1` (stereo not drawn) gave an inhibition of 3%.
Work on `O=C(O)CCC(=O)NC(Cc1ccc(OC(C(=O)O)C(=O)O)cc1)C(=O)NCCC(c1ccccc1)c1ccccc1` (stereo not drawn) yielded an inhibition of 11%.
`CCCCCNC(=O)C(Cc1ccc(OC(C(=O)O)C(=O)O)cc1)NC(=O)CC(=O)O` (stereo not drawn) gave an inhibition of 7%.
